{"source": "patent US7612072B2", "about": "“Amorphous form of a phosphoric acid salt of a dipeptidyl peptidase-IV inhibitor” (Merck & Co., Inc., priority 2004, dated 2009)", "assay": "Solubility in water of the amorphous form", "type": "physicochemical"}
{"smiles": "N[C@@H](CC(=O)N1CCn2c(nnc2C(F)(F)F)C1)Cc1cc(F)c(F)cc1F", "note": "[Compound I, (2R)-4-oxo-4-[3-(trifluoromethyl)-5,6-dihydro[1,2,4]triazolo[4,3-α]pyrazin-7(8H)-yl]-1-(2,4,5-trifluorophenyl)butan-2-amine dihydrogenphosphate]", "values": [{"measurement": "solubility in water", "value": "high solubility in water"}]}
